In article PMC9786170, “The Pharmacological Potential of Novel Melittin Variants from the Honeybee and Solitary Bees against Inflammation and Cancer” (Toxins, 2022):
“Also recorded” adds a separate entry of the source.

Columns and labels:
Format in all cases: cell-based, human
HEK293T cells [1] = experiment: Ca2+ induction assay (Fluo-8); details: Fluo-8, 0.25, 2.5, 25 µg/mL, partly already at 2.5 µg/mL, n = 4
Method: Figure 2 Melittin derivates influence cellular Ca^2+ and IP1 levels. (A) For the Ca^2+ induction assay, Fluo-8 pretreated HEK293-T cells were incubated with melittin derivates in the indicated concentrations and the fluorescence was detected. (B) For the Ca^2+ inhibition assay, Fluo-8 pretreated HEK293-T cells were incubated with peptides in the indicated concentrations for 30 min, stimulated with 5 µM ionomycin, and the fluorescence was detected. (C) IP3 has a short lifetime and is rapidly degraded to IP1; therefore, IP1 was determined. For the IP1/IP3 induction assay (left panel), HEK293T cells were incubated with melittin peptides in the indicated concentration for 2 h, a detection reagent was added, and the fluorescence resonance energy transfer signal was detected. For the IP1/IP3 inhibition assay (right panel), HEK293T cells were incubated with melittin peptides in the indicated concentration for 30 min and stimulated with 20 µM ionomycin for 1.5 h. After the addition of the detection reagent, the fluorescence resonance energy transfer signal was detected. Data are expressed as mean ± SEM. (A, B, C (left)) n = 4, (C (right)) n = 3. * p ≤ 0.05 versus control.
For analysis, 5 × 10^4 HEK293 cells or 2 × 10^4 MDA-MB-231 cells were seeded in a 96-well poly-D-lysine plate, incubated at 37 °C for 24 h, and treated with 4 µM Fluo-8-AM in HBSS for 1 h at 37 °C. After 1 h, the Fluo-8/HBSS was replaced by 100 µL HBSS. Five images per second were taken using an ImageXpress Micro Confocal High Content Imaging System (Molecular Device, San Jose, CA, USA). Melittin peptides (0.25, 2.5, and 25 µg/mL), DMSO (negative control), or 5 µM ionomycin (Sigma Aldrich; Taufkirchen, Germany) (positive control) were added to the cells. For the next 20 s, an image was obtained every second. For the inhibition assay, the peptide-treated samples (30 min) were treated with 5 µM ionomycin and for the next 20 s, an image was obtained every second. The data were analyzed with the MetaXpress Software Version 6 (Molecular Devices, San Jose, CA, USA). A threshold of fluorescence intensity was defined using cells before treatment, and all cells with a fluorescence signal above the threshold level were counted. For the induction assay, the number of cells above the threshold in the toxin-treated samples were related to the cells in the DMSO-treated sample. For the inhibition assay, the number of cells above the threshold in the melittin-treated samples were related to the cells in the ionomycin-treated sample.

HEK293T cells [2] = experiment: Cell viability assay (WST-8/Orangu formazan) in HEK293T cells; details: 25 µg/mL, 24 h, WST-8 formazan absorbance, n = 4
Method: Figure 1 Toxicity characterization of cells treated with melittin peptides. (A,B) For the viability assay, RAW264.7 (A) or HEK293T (B) cells were treated with bee venom compounds in the indicated concentrations for 24 h. Cells were incubated with WST-8 and the formed formazan was detected by absorbance measurements. (C) For the proliferation assay, HMEC-1 cells were grown in low density and treated after 24 h with the indicated peptide (25 µg/mL) for 72 h. Cells were stained with crystal violet solution. The amount of DNA-bound crystal violet was detected by absorbance measurements. (D) The number of sub-diploidic cells was determined by staining with propidium iodide (PI) and quantified to assess apoptosis of HUVECs. Data are expressed as mean ± SEM. (A) n = 3, (B) n = 4, (C) n = 2–3, (D) n = 2. * p ≤ 0.05 versus control.
For assessing the cytotoxicity of all peptides, various cell types and assays were utilized. […] After incubation, absorbance was measured at a wavelength of 450 nm with a reference at 650 nm at an EnSpire 2300 Multimode Plate Reader (Perkin Elmer, Lübeck, Germany). To calculate cell viability, the absorbance of vehicle-treated cells was set to 100%, and the melittin derivates-treated samples were correlated to them.

MDA-MB-231 cells = experiment: Proliferation assay (crystal violet) in MDA-MB-231 cells; details: n = 2; for anti-proliferative activity, 72 h: MDA-MB-231, 25 µg/mL, crystal violet
Method: Figure 5 Anti-proliferative and apoptotic effect of melittin derivates on the triple-negative breast cancer cell line MDA-MB-231. (A) For the proliferation assay, cells were grown in low density and were treated after 24 h with melittin peptides at a concentration of 25 µg/mL for 72 h. Cells were stained with crystal violet solution. The amount of DNA-bound crystal violet was detected by absorbance measurements. (B) Melt3, 4, and Xac4, which are non-toxic to healthy cells, were further used to test effects on proliferation at 24 h (left) and 48 h (right) at different concentrations. (C) The effects on apoptosis were detected by flow cytometry after 24 h (left), 48 h (middle), and 72 h (right) of treatment. The number of apoptotic cells was determined by staining with propidium iodide (PI). Data are expressed as mean ± SEM. n = 2, * p ≤ 0.05 versus control. Sts, staurosporin 1 µM.
HMECs (2000 cells/well) were seeded into collagen-coated 96-well plates and grown for 24 h. Then, they were treated with melittin peptides. Treated cells were cultured for 72 h, whereas untreated control cells, directly after 24 h, were fixed with a methanol-ethanol (2:1) solution and washed with PBS before they were stained using a crystal violet solution (20% methanol). Similarly, at the end of incubation time, cells treated with melittin peptides were fixed, stained, and unbound crystal violet was removed by washing with distilled water. Finally, cells were left to air dry, and DNA-bound crystal violet was dissolved using an acetic acid solution (20%, Sigma-Aldrich, Steinheim, Germany). Absorbance was measured at 590 nm using a plate reader (Infinite F200Pro, Tecan, Männedorf, Switzerland). The proliferation percentage was calculated by normalizing to the untreated control (24 h) and compared to the DMSO control (0.03%) of 72 h incubation. Similarly, MDA-MB-231 cells (6000 cells/well) were seeded into 96-well plates, and their proliferation ability under treatment conditions was tested as described above.

Substance | induction of Ca2+ release (HEK293T cells [1]) | cytotoxicity (cell viability) (HEK293T cells [2]) | anti-proliferative activity, 72 h (MDA-MB-231 cells) | proliferation at 24 h and 48 h, concentration range (MDA-MB-231 cells; MDA-MB-231, 24 h and 48 h, different concentrations, Melt4 effect at 10 and 25 µg/mL)
melittin [Melt, reference compound] | induced a significant release of Ca^2+; also recorded: induce Ca^2+ release | showed cytotoxicity | exhibited anti-proliferative activity | 
xylopin [Xac4] | induce Ca^2+ release | showed cytotoxicity | exhibited anti-proliferative activity; also recorded: anti-proliferative effects on breast cancer cells | trend of decreased proliferation
